Literature values as cited in US12728116B2, “Methods of treating multiple sclerosis” (Vanda Pharmaceuticals Inc., priority 2021, dated 2026).

Test system: adult subjects with relapsing MS
Conditions: comparison values given in brackets; cited from earlier work

Compound	ECG HR effect: time of nadir post-dose (other S1P receptor modulators) [h]
CCCCCCCCc1ccc(CCC(N)(CO)CO)cc1 [fingolimod]	~6
CCc1cc(/C(C)=N/OCc2ccc(C3CCCCC3)c(C(F)(F)F)c2)ccc1CN1CC(C(=O)O)C1 [siponimod]	3 to 4
